From US20250314636A1, “METHOD OF PREPARING AND EXPANDING A POPULATION OF IMMUNE CELLS FOR CANCER THERAPY, POTENCY ASSAY FOR TUMOR RECOGNITION, BIOLOGICAL VACCINE PREPARATION AND EPITOPETARGET FOR ANTIBODIES” (FUNDAÇÃO D. ANNA DE SOMMER CHAMPALIMAUD E DR. CARLOS MONTEZ …, priority 2022, published 2025)

Assays:
PBMCs = assay: Peptide recognition assay in PBMCs (IFN-γ in supernatant, 7 days); format: cell-based, human; details: 10e4 PBMC/well co-cultured with the peptide for 7 days, supernatant tested
Procedure: (§1) Peptides from tumor-associated antigens (TAAs), listed in Table 5 were placed at 1 ug/well in duplicates using anti-CD3 at 30 ng/mL as well as PHA at 5 μg/mL as positive controls.
(§2) The differences in TIL versus PBMCs can also be defined by peptide reactivity. 10e^4 TIL or 10e^4 PBMC/well were co-cultured with the peptides listed in Table 11 below for 7 days and the supernatants were tested for IFN-γ production.

TIL = assay: Peptide recognition assay in TIL (IFN-γ ELISA / IL-17 in supernatant, 7 days); format: cell-based, human; parameters: IFN-γ production, TIL: unit not given here; details: for IFN-γ production, TIL: 10e4 TIL/well co-cultured with the peptide for 7 days, supernatant tested; for Pancreatic TIL D1599 IFN-y / Pancreatic TILD1599 IL 17: Pancreatic TIL D1599
Procedure: as §1, §2

Sequence	IFN-γ production, PBMCs (PBMCs)	IFN-γ production, TIL (TIL)	Pancreatic TIL D1599 IFN-y (TIL)	Pancreatic TILD1599 IL 17 (TIL)
FVAESAEVLLPRLVS	0	0		
LDILDTAGHEEYSAMRD	0	0		
VTDASSASTGH [MUC4-P2_fitted for HLA-A*01:01]			0 pg/mL	14 pg/mL
DILDTAGLEEYSAMR	0	0		
LVVVGAGSVGKSALT	0	0		
LVVVGAGSVGKSALT [KRAS_G13S]			24 pg/mL	0 pg/mL
HRLSEPPEDLDALPL [Mesothelin MPF-8]			0 pg/mL	0 pg/mL
TPLPVTDASSASTGH	0	0		
VTDTSSASTGH	0	0		
LVVVGAGVVGKSALT [KRAS_G13V]			10 pg/mL	0 pg/mL
PVTSTSSASTGHATP	0	0		
YEQLDVLKHKLDELY [Mesothelin GPI P5]			0 pg/mL	0 pg/mL
LDVLYPKARLAFQNM [Mesothelin GPI P14]			0 pg/mL	11 pg/mL
PMVLVGNNCDLPSRT	0	0		
YKLVVVGARGVGKSALT [Kras_P4 (G12R)]			0 pg/mL	0 pg/mL
LDILDTAGKEEYSAMRD [Kras_P11 (Q61K)]			0 pg/mL	0 pg/mL
YKLVVVGADGVGKSALT [Kras_P3 (G12D)]			0 pg/mL	0 pg/mL
LDILDTAGHEEYSAMRD [Kras_P12 (Q61H)]			0 pg/mL	4 pg/mL
MQEALSGTPCLLGPG	0	0		
GIPFIETSTKTRQRVED [Kras_P15 (A146T)]			0 pg/mL	0 pg/mL
HRLSEPPEDLDALPL	0	0		
LVVVGAGRVGKSALT [KRAS_G13R]			29 pg/mL	0 pg/mL

Sequence	IFN-γ production, PBMCs (PBMCs)	IFN-γ production, TIL (TIL)	Pancreatic TIL D1599 IFN-y (TIL)	Pancreatic TILD1599 IL 17 (TIL)
LDILDTAGQEEYSAMRD [Kras_P10 (Q61 WT)]			0 pg/mL	0 pg/mL
TTPLPVTSPSSASSG	0	0		
LDILDTAGREEYSAMRD [Kras_P13 (Q61R)]			0 pg/mL	0 pg/mL
YKLVVVGASGVGKSALT [Kras_P5 (G12S)]			14 pg/mL	0 pg/mL
LVVVGAGVVGKSALT	0	0		
YKLVVVGAAGVGKSALT	0	0		
ELNNALQNL [ESAT6, reference compound]			0 pg/mL	0 pg/mL
MQEALSGTPCLLGPG [Mesothelin GPI P40 (601-605)]			0 pg/mL	120 pg/mL
PVTSPSSESTGHAIP [MUC4-P9 [Mut]]			0 pg/mL	0 pg/mL
YKLVVVGACGVGKSALT	0	0		
PVTSTSSVSTGHATP	0	0		
PVTSTSSASTGHATP [MUC4-P8 [WT]]			0 pg/mL	2 pg/mL
LDILDTAGQEEYSAMRD	0	0		
PVTSLSSASTGDTTP [MUC4-P4 [WT]]			17 pg/mL	0 pg/mL
TTPLPVTIPSSASSG [MUC4-P5 [Mut][WT]]			12 pg/mL	0 pg/mL
TLGEFLKLDRERAKN	0	0		
SVSTMDALRGLLPVL [Mesothelin MPF-17]			0 pg/mL	0 pg/mL
TPLPVTDNSSASTGD [MUC4-P11 [Mut]]			19 pg/mL	0 pg/mL
YEQLDVLKHKLDELY	0	0		
KLVVVGAGGVGKSALTI [Kras_P8 (G13 WT)]			0 pg/mL	108 pg/mL
YKLVVVGAGGVGKSALT [Kras_P1 (G12 WT)]			0 pg/mL	37 pg/mL
TTPLPVTSPSSASSG [MUC4-P6 [WT]]			0 pg/mL	0 pg/mL

Sequence	IFN-γ production, PBMCs (PBMCs)	IFN-γ production, TIL (TIL)	Pancreatic TIL D1599 IFN-y (TIL)	Pancreatic TILD1599 IL 17 (TIL)
PVTSPSSASTGHAIP [MUC4-P10 [WT]]			5 pg/mL	0 pg/mL
VTDASSASTGH	0	0		
VTDTSSASTGH [MUC4-P1_fitted for HLA-A*01:01]			0 pg/mL	24 pg/mL
LVVVGAGCVGKSALT [KRAS_G13C]			26 pg/mL	0 pg/mL
TPLPVTDTSSASTGH [MUC4-P2 [WT]]			0 pg/mL	1 pg/mL
WAVRPQDLDTCDPRQ [Mesothelin GPI P13]			0 pg/mL	0 pg/mL
YKLVVVGARGVGKSALT	0	0		
LAFQPPISNHPAPEY [SMAD4 [D1 private peptide]]			0 pg/mL	0 pg/mL
LDILDTAGREEYSAMRD	0	150		
PVTSPSSESTGHAIP	0	0		
YKLVVVGASGVGKSALT	0	0		
LVVVGAGCVGKSALT	0	0		
YKLVVVGAAGVGKSALT [Kras_P7 (G12A)]			0 pg/mL	65 pg/mL
ELNNALQNL	0	6		
PMVLVGNNCDLPSRT [KRAS_K117N]			32 pg/mL	0 pg/mL
TPLPVTDASSASTGH [MUC4-P1 [Mut][WT]]			0 pg/mL	3 pg/mL
LLPRGAPERQRLLPA	0	0		
LLPRGAPERQRLLPA [Mesothelin MPF-11]			0 pg/mL	0 pg/mL
SVSTMDALRGLLPVL	0	0		
PVTSLSSVSTGDTTP	0	0		
MALPTARPLLGSCGT	0	0		
KLVVVGAVGVGKSAL [KRAS_G12F]			36 pg/mL	0 pg/mL

Sequence	IFN-γ production, PBMCs (PBMCs)	IFN-γ production, TIL (TIL)	Pancreatic TIL D1599 IFN-y (TIL)	Pancreatic TILD1599 IL 17 (TIL)
LAFQPPISNHPAPEY	0	0		
LVVVGAVGVGKSALT [KRAS fitted for HLA-DQB1*06:02]			0 pg/mL	0 pg/mL
KLVVVGAGDVGKSALTI	0	0		
LVVVGAGAVGKSALT	0	0		
LVVVGAGRVGKSALT	0	0		
PVTSLSSASTGDTTP	0	0		
KLVVVGAGDVGKSALTI [Kras_P9 (G13D)]			0 pg/mL	3 pg/mL
LQGGIPNGYLVLDLS [Mesothelin GPI P40 (596-610)]			0 pg/mL	0 pg/mL
YKLVVVGACGVGKSALT [Kras_P6 (G12C)]			0 pg/mL	0 pg/mL
LVVVGAGAVGKSALT [KRAS_G13A]			19 pg/mL	0 pg/mL
FVAESAEVLLPRLVS [Mesothelin MPF-14]			0 pg/mL	0 pg/mL
PVTSTSSVSTGHATP [MUC4-P7 [Mut][WT]]			0 pg/mL	0 pg/mL
ALACWGVRGSLLSEA [Mesothelin MPF-12]			0 pg/mL	0 pg/mL
YKLVVVGAVGVGKSALT [Kras_P2 (G12V)]			0 pg/mL	2 pg/mL
TLGEFLKLDRERAKN [Survivin (97-111)]			0 pg/mL	0 pg/mL
TPLPVTDTSSASTGD [MUC4-P12 [WT]]			34 pg/mL	0 pg/mL
MALPTARPLLGSCGT [Mesothelin MPF-1]			0 pg/mL	0 pg/mL
DILDTAGLEEYSAMR [KRAS_Q61L]			24 pg/mL	0 pg/mL
GIPFIETSAKTRQRVED [Kras_P14 (A146 WT)]			0 pg/mL	0 pg/mL
IPFIETSVKTRQRVE [KRAS_A146V]			5 pg/mL	0 pg/mL
